In ChEMBL document CHEMBL4765227, “Hit to lead optimization of a series of N-[4-(1,3-benzothiazol-2-yl)phenyl]acetamides as monoacylglycerol lipase inhibitors with potential anticancer activity” (Eur J Med Chem, 2016):

Tests used:
[1] = test system: MDA-MB-435; assay: Growth inhibition of human MDA-MB-435 cells at 10 uM incubated for 48 hrs by sulforhodamine B assay relative to control; format: functional; details: read-out: GI
[2] = test system: SK-MEL-5; assay: Growth inhibition of human SK-MEL-5 cells at 10 uM incubated for 48 hrs by sulforhodamine B assay relative to control; format: functional; details: read-out: GI
[3] = test system: IGROV-1; assay: Growth inhibition of human IGROV-1 cells at 10 uM incubated for 48 hrs by sulforhodamine B assay relative to control; format: functional; details: read-out: GI
[4] = test system: TK-10; assay: Growth inhibition of human TK-10 cells at 10 uM incubated for 48 hrs by sulforhodamine B assay relative to control; format: functional; details: read-out: GI
[5] = test system: UACC-62; assay: Growth inhibition of human UACC-62 cells at 10 uM incubated for 48 hrs by sulforhodamine B assay relative to control; format: functional; details: read-out: GI
[6] = test system: T47D; assay: Growth inhibition of human T47D cells at 10 uM incubated for 48 hrs by sulforhodamine B assay relative to control; format: functional; details: read-out: GI
[7] = test system: SK-MEL-28; assay: Growth inhibition of human SK-MEL-28 cells at 10 uM incubated for 48 hrs by sulforhodamine B assay relative to control; format: functional; details: read-out: GI
[8] = test system: EKVX; assay: Growth inhibition of human EKVX cells at 10 uM incubated for 48 hrs by sulforhodamine B assay relative to control; format: functional; details: read-out: GI
[9] = test system: NCI-H460; assay: Growth inhibition of human NCI-H460 cells at 10 uM incubated for 48 hrs by sulforhodamine B assay relative to control; format: functional; details: read-out: GI
[10] = test system: SNB-19; assay: Growth inhibition of human SNB-19 cells at 10 uM incubated for 48 hrs by sulforhodamine B assay relative to control; format: functional; details: read-out: GI
[11] = target: T1, Monoglyceride lipase (Homo sapiens, UniProt Q99685); assay: Inhibition of human MAGL using 4-Nitrophenylacetate as substrate
T1 sequence (Q99685 whole entry): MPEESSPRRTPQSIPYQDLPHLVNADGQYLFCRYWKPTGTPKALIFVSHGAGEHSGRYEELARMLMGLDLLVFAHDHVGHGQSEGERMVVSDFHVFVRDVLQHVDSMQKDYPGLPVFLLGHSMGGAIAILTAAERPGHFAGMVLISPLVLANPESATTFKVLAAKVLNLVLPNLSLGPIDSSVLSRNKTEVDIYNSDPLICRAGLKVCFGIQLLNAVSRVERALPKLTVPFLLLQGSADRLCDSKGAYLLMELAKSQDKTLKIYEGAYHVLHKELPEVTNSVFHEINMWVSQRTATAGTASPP

[12] = test system: CCRF-CEM; assay: Growth inhibition of human CCRF-CEM cells at 10 uM incubated for 48 hrs by sulforhodamine B assay relative to control; format: functional; details: read-out: GI
[13] = test system: BT-549; assay: Growth inhibition of human BT-549 cells at 10 uM incubated for 48 hrs by sulforhodamine B assay relative to control; format: functional; details: read-out: GI
[14] = test system: SK-OV-3; assay: Growth inhibition of human SK-OV-3 cells at 10 uM incubated for 48 hrs by sulforhodamine B assay relative to control; format: functional; details: read-out: GI
[15] = test system: K562; assay: Growth inhibition of human K562 cells at 10 uM incubated for 48 hrs by sulforhodamine B assay relative to control; format: functional; details: read-out: GI
[16] = test system: SK-MEL-2; assay: Growth inhibition of human SK-MEL-2 cells at 10 uM incubated for 48 hrs by sulforhodamine B assay relative to control; format: functional; details: read-out: GI
[17] = test system: A498; assay: Growth inhibition of human A498 cells at 10 uM incubated for 48 hrs by sulforhodamine B assay relative to control; format: functional; details: read-out: GI

Structure (SMILES) | inhibition of growth at 10 µM [1] [%] | inhibition of growth at 10 µM [2] [%] | inhibition of growth at 10 µM [3] [%] | inhibition of growth at 10 µM [4] [%] | inhibition of growth at 10 µM [5] [%] | inhibition of growth at 10 µM [6] [%] | inhibition of growth at 10 µM [7] [%] | inhibition of growth at 10 µM [8] [%] | inhibition of growth at 10 µM [9] [%] | inhibition of growth at 10 µM [10] [%] | IC50 [11] [µM] | inhibition of growth at 10 µM [12] [%] | inhibition of growth at 10 µM [13] [%] | inhibition of growth at 10 µM [14] [%] | inhibition of growth at 10 µM [15] [%] | inhibition of growth at 10 µM [16] [%] | inhibition of growth at 10 µM [17] [%]
O=C(CN1C(=O)C(=O)c2ccccc21)Nc1ccc(-c2nc3ccccc3s2)cc1 | -3.52 | 16.6 | -0.62 | -13.3 | -6.27 | 29.4 | -15.4 | 14.2 | -2.87 | 5.55 | > 100 | 21.8 | -3.83 | -10.3 | 21.3 | 0.87 | 10.7
O=C(CN(c1ccccc1)c1ccccc1)Nc1ccc(-c2nc3ccccc3s2)cc1 | -4.11 | 7.11 | 4.71 | -2.02 | 2.85 | 13.6 | -10.5 | -9.19 | -0.29 | -7.16 | > 100 | -6.75 | -12.2 | -11.4 | 3.89 | -0.42 | 6.91
O=C(Cn1c2ccccc2c2ccccc21)Nc1ccc(-c2nc3ccccc3s2)cc1 | -1.43 | 6.47 | 13.4 | -1.97 | 4.66 | 15.5 | -7.99 | -3.36 | -1.93 | -4.51 | > 100 | -5.65 | -5.6 | -7.77 | 4.71 | -0.88 | 9.51
